Results published in PubChem BioAssay AID330 (DTP/NCI, 2004).
Several values for one entry are separate records, joined by “and”; a condition that tells them apart may be missing. Equal entries are not always repeated. Toxic doses and inconclusive results are not listed.

Test system: P388 leukemia ip, CD2F1 mice, survival T/C
Assay: NCI In Vivo Anticancer Drug Screen. Data for tumor model P388 Leukemia (intraperitoneal) in CD2F1 (CDF1) mice
Conditions: endpoint: median survival time, higher = longer survival
Outline: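 Mice carrying the transplanted tumor received test compound or vehicle. Survival was recorded in each group, and the value is the treated-group measurement divided by that of the vehicle-treated control group.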

[1] = dose: 100.0 mg/kg/injection, schedule: Q01DX001 (ip), vehicle: Klucel (hydroxypropylcellulose) (HPC)
[2] = dose: 200.0 mg/kg/injection, schedule: Q01DX001 (ip), vehicle: Klucel (hydroxypropylcellulose) (HPC)
[3] = dose: 400.0 mg/kg/injection, schedule: Q01DX001 (ip), vehicle: Klucel (hydroxypropylcellulose) (HPC)
[4] = dose: 50.0 mg/kg/injection, schedule: Q01DX005 (ip), vehicle: saline with Tween-80
[5] = dose: 100.0 mg/kg/injection, schedule: Q01DX005 (ip), vehicle: saline with Tween-80
[6] = dose: 200.0 mg/kg/injection, schedule: Q01DX005 (ip), vehicle: saline with Tween-80
[7] = dose: 25.0 mg/kg/injection, schedule: Q01DX005 (ip), vehicle: Klucel (hydroxypropylcellulose) (HPC)
[8] = dose: 50.0 mg/kg/injection, schedule: Q01DX005 (ip), vehicle: Klucel (hydroxypropylcellulose) (HPC)
[9] = dose: 100.0 mg/kg/injection, schedule: Q01DX005 (ip), vehicle: Klucel (hydroxypropylcellulose) (HPC)
[10] = dose: 200.0 mg/kg/injection, schedule: Q04DX003 (ip), vehicle: saline with Tween-80
[11] = dose: 25.0 mg/kg/injection, schedule: Q01DX005 (ip), vehicle: saline with Tween-80
[12] = dose: 100.0 mg/kg/injection, schedule: Q04DX003 (ip), vehicle: saline with Tween-80

For `CC(C)(C)/C=C/N=NNc1ccccn1`, the T/C [1] was 97 % of control, the T/C [2] was 92 % of control and the T/C [3] was 94 % of control.
For `Cc1cc(=O)n(-c2ccc([N+](=O)[O-])cc2)c(C)c1C(=O)O`, the T/C [4] was 98 % of control, the T/C [5] was 103 % of control and the T/C [6] was 106 % of control.
With `COc1ccc(C2=C(Cl)C(=O)N(c3ccccc3OC)C(=O)C2(Cl)Cl)cc1` the T/C (dose: 100.0 mg/kg/injection, schedule: Q04DX003 (ip), vehicle: Klucel (hydroxypropylcellulose) (HPC)) was 107 % of control, the T/C (dose: 200.0 mg/kg/injection, schedule: Q04DX003 (ip), vehicle: Klucel (hydroxypropylcellulose) (HPC)) was 103 % of control and the T/C (dose: 400.0 mg/kg/injection, schedule: Q04DX003 (ip), vehicle: Klucel (hydroxypropylcellulose) (HPC)) was 98 % of control.
In the case of `COc1cccc2c1C(=O)c1c(O)c3c(c(O)c1C2=O)CC(O)(C(C)=O)CC3OC1CC(N)C(C(C)O)O1` (stereo not drawn), the T/C (dose: 2.25 mg/kg/injection, schedule: Q04DX003 (ip), vehicle: distilled water + Tween-80) is reported as 100 % of control, the T/C (dose: 4.5 mg/kg/injection, schedule: Q04DX003 (ip), vehicle: distilled water + Tween-80) is reported as 99 % of control and the T/C (dose: 9.0 mg/kg/injection, schedule: Q04DX003 (ip), vehicle: distilled water + Tween-80) is reported as 110 % of control. The T/C (dose: 18.0 mg/kg/injection, schedule: Q04DX003 (ip), vehicle: distilled water + Tween-80) was 101 % of control and the T/C (dose: 36.0 mg/kg/injection, schedule: Q04DX003 (ip), vehicle: distilled water + Tween-80) was 110 % of control.
With `Cc1cccc(N=Nc2c(C)nn(C(N)=S)c2C)c1C` the T/C [7] was 90 % of control, the T/C [8] was 94 % of control and the T/C [9] was 106 % of control.
For `CS(=O)CCC(N)P(=O)(O)O` (stereo not drawn), the T/C (dose: 50.0 mg/kg/injection, schedule: Q01DX005 (ip), vehicle: saline) was 92 % of control, the T/C (dose: 100.0 mg/kg/injection, schedule: Q01DX005 (ip), vehicle: saline) was 99 % of control and the T/C (dose: 200.0 mg/kg/injection, schedule: Q01DX005 (ip), vehicle: saline) was 99 % of control.
For `COc1cc2cc3c4cc(OC)c(OC)cc4cc[n+]3c(C)c2cc1OC` (tested in a mixture with another compound), the T/C (dose: 12.5 mg/kg/injection, schedule: Q01DX009 (ip), vehicle: water) was 154 % of control, the T/C (dose: 16.0 mg/kg/injection, schedule: Q01DX009 (ip), vehicle: water) was 106 % of control and the T/C (dose: 16.0 mg/kg/injection, schedule: Q01DX009 (sc), vehicle: water) was 108 % of control. The T/C (dose: 25.0 mg/kg/injection, schedule: Q01DX009 (ip), vehicle: water) was 158 % of control and 163 % of control and 172 % of control, the T/C (dose: 25.9 mg/kg/injection, schedule: Q04DX003 (ip), vehicle: water) was 118 % of control and the T/C (dose: 32.0 mg/kg/injection, schedule: Q01DX009 (ip), vehicle: water) was 105 % of control. For the same compound, the T/C (dose: 32.0 mg/kg/injection, schedule: Q01DX009 (sc), vehicle: water) was 118 % of control, the T/C (dose: 43.2 mg/kg/injection, schedule: Q04DX003 (ip), vehicle: water) was 123 % of control and the T/C (dose: 50.0 mg/kg/injection, schedule: Q01DX009 (ip), vehicle: saline) was 191 % of control. The T/C (dose: 50.0 mg/kg/injection, schedule: Q01DX009 (ip), vehicle: water) was 200 % of control, the T/C (dose: 50.0 mg/kg/injection, schedule: Q04DX003 (ip), vehicle: water) was 152 % of control and 171 % of control and the T/C (dose: 64.0 mg/kg/injection, schedule: Q01DX009 (sc), vehicle: water) was 123 % of control. The T/C (dose: 100.0 mg/kg/injection, schedule: Q01DX009 (ip), vehicle: saline) was 90 % of control, the T/C (dose: 100.0 mg/kg/injection, schedule: Q01DX009 (ip), vehicle: water) was 200 % of control and the T/C (dose: 100.0 mg/kg/injection, schedule: Q04DX003 (ip), vehicle: saline) was 150 % of control. The T/C (dose: 100.0 mg/kg/injection, schedule: Q04DX003 (ip), vehicle: water) was 158 % of control and 162 % of control and 187 % of control, the T/C (dose: 128.0 mg/kg/injection, schedule: Q01DX009 (ip), vehicle: water) was 118 % of control and the T/C (dose: 128.0 mg/kg/injection, schedule: Q01DX009 (sc), vehicle: water) was 115 % of control. The T/C [10] was 183 % of control, the T/C (dose: 200.0 mg/kg/injection, schedule: Q04DX003 (ip), vehicle: saline) was 184 % of control and the T/C (dose: 256.0 mg/kg/injection, schedule: Q01DX009 (ip), vehicle: water) was 105 % of control. For the same compound, the T/C (dose: 512.0 mg/kg/injection, schedule: Q01DX009 (ip), vehicle: water) was 89 % of control.
In the case of `C/C(=C/c1nc2ccccc2[nH]1)c1ccccc1`, the T/C [11] is reported as 100 % of control, the T/C [4] is reported as 100 % of control and 107 % of control and the T/C [5] is reported as 121 % of control and 96 % of control. For the same compound, the T/C [6] was 95 % of control and 96 % of control.
With `CCN(CC)Cc1c(O)c(N=Nc2cccc3ccccc23)cc2ccccc12` the T/C (dose: 3.0 mg/kg/injection, schedule: Q01DX009 (ip), vehicle: Klucel (hydroxypropylcellulose) (HPC)) was 111 % of control, the T/C (dose: 6.0 mg/kg/injection, schedule: Q01DX009 (ip), vehicle: Klucel (hydroxypropylcellulose) (HPC)) was 107 % of control and the T/C (dose: 12.0 mg/kg/injection, schedule: Q01DX009 (ip), vehicle: Klucel (hydroxypropylcellulose) (HPC)) was 104 % of control. The T/C (dose: 12.5 mg/kg/injection, schedule: Q01DX009 (ip), vehicle: Klucel (hydroxypropylcellulose) (HPC)) was 113 % of control.
With `CC1C2CCC(C2)C1CNCC1C2CCC(C2)C1C` (stereo not drawn) the T/C (dose: 12.5 mg/kg/injection, schedule: Q01DX005 (ip), vehicle: saline with Tween-80) was 100 % of control, the T/C [11] was 103 % of control and the T/C [4] was 101 % of control and 105 % of control.
For `NC(=O)CCCC(C(N)=O)c1ccccc1` (stereo not drawn), the T/C [1] was 100 % of control, the T/C [2] was 105 % of control and the T/C [3] was 99 % of control.
In the case of `C=C1C(=O)O[C@@H]2C3=C(C)C(=O)CC[C@]3(C)CC[C@@H]12`, the T/C (dose: 100.0 mg/kg/injection, schedule: Q04DX002 (ip), vehicle: saline with Tween-80) is reported as 108 % of control.
With `NOCc1cccc(Cl)c1` the T/C (dose: 25.0 mg/kg/injection, schedule: Q01DX009 (ip), vehicle: saline with Tween-80) was 87 % of control and the T/C (dose: 100.0 mg/kg/injection, schedule: Q01DX009 (ip), vehicle: saline with Tween-80) was 87 % of control.
`O=C(Nc1ccc(Cl)cc1)Nc1nnc(-c2cccc(-c3nnc(NC(=O)Nc4ccc(Cl)cc4)o3)c2)o1` was tested, and the T/C (dose: 60.0 mg/kg/injection, schedule: Q01DX005 (ip), vehicle: Klucel (hydroxypropylcellulose) (HPC)) was 94 % of control, the T/C (dose: 120.0 mg/kg/injection, schedule: Q01DX005 (ip), vehicle: Klucel (hydroxypropylcellulose) (HPC)) was 96 % of control and the T/C (dose: 240.0 mg/kg/injection, schedule: Q01DX005 (ip), vehicle: Klucel (hydroxypropylcellulose) (HPC)) was 97 % of control.
In the case of `Cc1cnc2c(N)nn(-c3ccccc3)c2n1`, the T/C [12] is reported as 95 % of control and the T/C [10] is reported as 105 % of control.
For `CSc1nc2c(NN)ncnc2s1`, the T/C (dose: 80.5 mg/kg/injection, schedule: Q01DX001 (ip), vehicle: distilled water + alcohol) was 106 % of control, the T/C (dose: 161.0 mg/kg/injection, schedule: Q01DX001 (ip), vehicle: distilled water + alcohol) was 102 % of control and the T/C (dose: 322.0 mg/kg/injection, schedule: Q01DX001 (ip), vehicle: distilled water + alcohol) was 102 % of control.
With `CCN(CC)CC(O)c1c(-c2ccccc2)c(-c2ccccc2)c2n1CCC2` (stereo not drawn) the T/C (dose: 50.0 mg/kg/injection, schedule: Q01DX009 (ip), vehicle: Klucel (hydroxypropylcellulose) (HPC)) was 103 % of control, the T/C (dose: 100.0 mg/kg/injection, schedule: Q01DX009 (ip), vehicle: Klucel (hydroxypropylcellulose) (HPC)) was 106 % of control and the T/C (dose: 200.0 mg/kg/injection, schedule: Q01DX009 (ip), vehicle: Klucel (hydroxypropylcellulose) (HPC)) was 109 % of control.
`CC1=C(C(=O)Nc2ccccc2)C(/C=C/c2ccccc2)C(C(=O)Nc2ccccc2)=C(C)N1` was tested, and the T/C (dose: 25.0 mg/kg/injection, schedule: Q01DX001 (ip), vehicle: saline with Tween-80) was 92 % of control, the T/C (dose: 50.0 mg/kg/injection, schedule: Q01DX001 (ip), vehicle: saline with Tween-80) was 89 % of control and the T/C (dose: 100.0 mg/kg/injection, schedule: Q01DX001 (ip), vehicle: saline with Tween-80) was 96 % of control.
In the case of `COC(=O)C1CC(c2ccccc2)N(c2ccccc2)O1` (stereo not drawn) (tested in a mixture with another compound), the T/C [12] is reported as 95 % of control, the T/C [10] is reported as 96 % of control and the T/C (dose: 400.0 mg/kg/injection, schedule: Q04DX003 (ip), vehicle: saline with Tween-80) is reported as 94 % of control.
In the case of `CCOC(=O)c1ccc2c(c1)nc(-c1ccccn1)n2CCc1ccccn1`, the T/C [7] is reported as 100 % of control and 102 % of control, the T/C [8] is reported as 98 % of control and the T/C [9] is reported as 100 % of control and 107 % of control. The T/C (dose: 200.0 mg/kg/injection, schedule: Q01DX005 (ip), vehicle: Klucel (hydroxypropylcellulose) (HPC)) was 109 % of control and 110 % of control.
For `CC(=O)NC1CCC(C2CCCCC2)CC1C1CCCCC1` (stereo not drawn), the T/C [4] was 107 % of control, the T/C [5] was 98 % of control and the T/C [6] was 102 % of control.
